The results in this text go back to patent US10744114B2, “Use of eupatilin as pharmaceutical composition for prevention and treatment of fibrosis using EMT inhibitory activity” (OSTEONEUROGEN INC., priority 2016, dated 2020).

The data set has as its system ONGHEPA1 cells. Briefly: TGF-β-induced fibrosis of ONGHEPA1 cells (microscope). The conditions noted are these: 24 hr; for inhibition of the progress of fibrosis (differentiation into myofibroblasts): TGF-β 5 ng/mL plus 50 μM compound; for toxicity to ONGHEPA1 cells: TGF-β plus 50 μM compound. In kind it is cell-based, mouse. An excerpt: The liver tissue was separated from C57BL/6 mice and a single-cell suspension thereof was made, and immortalized cells were obtained through continuous culture and were confirmed to be mesenchymal stem cells (MSC) of HSC via RT-PCR (Reverse Transcription Polymerase Chain Reaction) using MC (Immunohistochemistry) and FACS (Fluorescence-Activated Cell Sorting). This cell line was called “ONGHEPA1”, and was deposited with the Korean Collection for Type Cultures (KCTC) of the Korea Research Institute of Bioscience and Biotechnology and assigned accession number KCTC13086BP.
Using such properties of HSC, the fibrotic characteristics of ONGHEPA1 were measured. To induce fibrosis, TGF-β (transforming growth factor beta) was added, and the morphologies of the cells were observed after 6 hr, 12 hr, 24 hr, and 48 hr. Consequently, fibrosis was confirmed to progress considerably after 24 hr and further progress after 48 hr (A of FIG. 6).
While ONGHEPA1 cells were incubated, they were treated with TGF-β to induce fibrosis, and 50 μM of eupatilin was added to the culture medium.
In order to more clearly evaluate the effect of eupatilin as above, changes were measured when ONGHEPA1 cells were first treated with eupatilin, washed to remove eupatilin and then treated with TGF-β to induce fibrosis. […] This means that eupatilin is directly associated with the course of fibrosis to thus inhibit the progress of fibrosis.
On the contrary, changes were measured when ONGHEPA1 cells were first treated with TGF-β to induce fibrosis, washed to remove TGF-β and then treated with eupatilin. […] Even when fibrosis was already progressed, eupatilin was able to restore the cells to their original normal condition.
In order to more clearly evaluate whether eupatilin was able to restore the cells that already undergone fibrosis to normal cells, changes were measured when ONGHEPA1 cells were treated with TGF-β for 24 hr to induce complete fibrosis and then treated with eupatilin. […] This means that fibrosis that has progressed considerably can be effectively treated using eupatilin.
The effects of various chromone derivatives other than eupatilin on fibrosis were measured in the same manner as in Example 3-3. While ONGHEPA1 cells were incubated, fibrosis was induced by TGF-β, and a chromone derivative was added at a concentration of 50 μM to the culture medium.

Turning to `COc1c(-c2ccccc2)oc2c(OC)c(O)cc(O)c2c1=O` [ONGA100], the “inhibition of the progress of fibrosis (differentiation into myofibroblasts)” value is “no effects or very low effects”. Besides, the “inhibition of the progress of fibrosis (differentiation into myofibroblasts)” value (listed as Chemical Formula 8) is given as “no effects on the inhibition of fibrosis”.

Take `COc1c(-c2ccc(O)cc2)oc2cc(O)cc(O)c2c1=O` [ONGB200]: the “inhibition of the progress of fibrosis (differentiation into myofibroblasts)” value is reported as “no effects or very low effects”. Besides, for the setting “listed as Chemical Formula 10”, the “inhibition of the progress of fibrosis (differentiation into myofibroblasts)” value was “no effects on the inhibition of fibrosis”.

For the molecule `COc1cc2oc(-c3ccc(O)cc3)cc(=O)c2c(O)c1OC` [ONGC200, 5-hydroxy-2-(4-hydroxyphenyl)-6,7-dimethoxy-chromone], the “inhibition of the progress of fibrosis (differentiation into myofibroblasts)” value is on record as “effective at inhibiting the progress of fibrosis”.

For the molecule `COc1ccc(-c2cc(=O)c3c(O)c(O)c(O)cc3o2)cc1` [ONGD200], the “toxicity to ONGHEPA1 cells” value is “toxicity such as necrosis”.

As to `COc1ccc(-c2oc3cc(O)c(OC)c(O)c3c(=O)c2OC)cc1O` [ONGD400], the “toxicity to ONGHEPA1 cells” value is given as “toxicity such as necrosis”.

On to `COc1c(O)cc2oc(-c3ccc(O)cc3)cc(=O)c2c1O` [ONGE200, 5,7-dihydroxy-2-(4-hydroxyphenyl)-6-methoxy-chromone], for which the “inhibition of the progress of fibrosis (differentiation into myofibroblasts)” value is on record as “effective at inhibiting the progress of fibrosis”. Moreover, the “inhibition of the progress of fibrosis (differentiation into myofibroblasts)” value (listed as Chemical Formula 5) is “superior fibrosis-inhibiting effects”.

For `O=c1cc(-c2ccc(O)c(O)c2O)oc2cc(O)cc(O)c12` [ONGE300], the “inhibition of the progress of fibrosis (differentiation into myofibroblasts)” value is “no effects or very low effects”. Also, the “inhibition of the progress of fibrosis (differentiation into myofibroblasts)” value (listed as Chemical Formula 11) is on record as “no effects on the inhibition of fibrosis”.

In the case of `COc1cc2oc(-c3ccc(O)c(O)c3)cc(=O)c2c(O)c1OC` [ONGH200, 2-(3,4-dihydroxyphenyl)-5-hydroxy-6,7-dimethoxy-chromone], the “inhibition of the progress of fibrosis (differentiation into myofibroblasts)” value was “effective at inhibiting the progress of fibrosis”. In addition, the “inhibition of the progress of fibrosis (differentiation into myofibroblasts)” value (listed as Chemical Formula 7) is “superior fibrosis-inhibiting effects”.

For `COc1cc(-c2oc3cc(O)c(OC)c(O)c3c(=O)c2OC)ccc1O` [ONGH300], the “toxicity to ONGHEPA1 cells” value is given as “toxicity such as necrosis”.

Regarding `COc1c(O)cc2oc(-c3ccc(O)c(O)c3)cc(=O)c2c1O` [ONGI300, 2-(3,4-dihydroxyphenyl)-5,7-dihydroxy-6-methoxy-chromone], the “inhibition of the progress of fibrosis (differentiation into myofibroblasts)” value is recorded as “effective at inhibiting the progress of fibrosis”. The “inhibition of the progress of fibrosis (differentiation into myofibroblasts)” value (listed as Chemical Formula 3) is reported as “superior fibrosis-inhibiting effects”.

Take `COc1c(O)cc(O)c2c(=O)cc(-c3ccccc3)oc12` [wogonin, reference compound]: the “inhibition of the progress of fibrosis (differentiation into myofibroblasts)” value is “no effects or very low effects”. For the same molecule, under “listed as Chemical Formula 9”, the “inhibition of the progress of fibrosis (differentiation into myofibroblasts)” value is given as “no effects on the inhibition of fibrosis”.
